Experimental data taken from US5789654A, “Transgenic animals deficient in endogenous β3 -adrenergic receptor and uses thereof” (Beth Israel Hospital Association, priority 1996, dated 1998).
Where two headings read alike, the source gives them in different places. One block for each molecule: values may come before it.

Experiments:
[1] = test system: isolated white adipocytes; test: Lipolysis (glycerol release) in isolated white adipocytes; assay type: cell-based, mouse; settings: +ADA
Experimental: (§1) To determine the functional consequences of β3 -AR deficiency on β-adrenergic signalling, the effects of β-adrenergic agonists on adenylate cyclase activity and lipolysis were assessed. For determination of adenylate cyclase activity (FIG. 5), plasma membranes were obtained from isolated white adipocytes or interscapular brown adipose tissue, and then were incubated in the presence of various agonists. […] To assess lipolysis (FIGS. 6A and 6B), white adipocytes were isolated from epididymal fat pads, and then incubated in the presence of various agonists. Rates of lipolysis were determined by quantitating the release of glycerol.
For analysis of lipolysis, isolated white adipocytes (100 μl of a 10% isolate fat cell suspension) were incubated in a final volume of 500 μl, and glycerol release was measured over a fifteen minute period. […] Except where noted, the incubation medium consisted of a Krebs-Ringer-Hepes (30 mM) buffer (pH 7.4) supplemented with 2.5% bovine serum albumin (fraction V), 10 μM PIA (N^6 -[R-(-)-1-methyl-2-phenyl]adenosine), 1 unit/ml adenosine deaminase, and varying concentrations of agonists.

human β3 -AR = molecular target: T1, human β3 -AR (Homo sapiens, UniProt P13945); test: O2 consumption in knockout mice expressing the reconstituted human β3 -AR; assay type: in vivo, mouse; settings: 10 mg/ml
T1 construct: reconstituted with an 80 kb β3 -AR human genomic clone; expressed in transfected cells; host or cells: transgenic beta-3-AR-deficient mice (human genomic P1 insert injected into zygotes; mRNA detected in brown adipose tissue only)
T1 sequence (P13945 whole entry): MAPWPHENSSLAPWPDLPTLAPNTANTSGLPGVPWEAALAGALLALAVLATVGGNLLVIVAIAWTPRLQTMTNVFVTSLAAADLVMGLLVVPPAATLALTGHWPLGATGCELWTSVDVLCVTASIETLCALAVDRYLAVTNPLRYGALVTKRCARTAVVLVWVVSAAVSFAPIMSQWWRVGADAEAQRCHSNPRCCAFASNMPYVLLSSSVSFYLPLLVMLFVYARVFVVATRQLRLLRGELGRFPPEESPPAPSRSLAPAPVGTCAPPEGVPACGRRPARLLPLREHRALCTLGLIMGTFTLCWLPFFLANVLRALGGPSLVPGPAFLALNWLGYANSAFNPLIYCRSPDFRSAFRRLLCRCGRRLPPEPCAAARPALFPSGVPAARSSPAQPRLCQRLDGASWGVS
Experimental: The effects on oxygen consumption were then assessed according to standard methods (e.g., those described herein).
(§2) Oxygen consumption was measured as described by Lowell et al. (supra) in twelve-week-old control, β3 -AR-deficient male mice, and β3 -AR-deficient knockout mice expressing the human β3-AR gene.

β3 -AR [2] = assay type: in vivo, mouse; settings: for stimulated oxygen consumption: β3 -AR-deficient male mice vs control
Experimental: (§3) Mice that received norepinephrine were anesthetized with pentobarbital for the study.
as §2

β3 -AR [3] = assay type: biochemical, mouse; settings: for reduction of stimulatory effect on adenylate cyclase activity: β3 -AR-deficient vs wild type
Experimental: as §1

β3 -AR [4] = assay type: in vivo, mouse; settings: for FFA: serum, fifteen minutes after injection
Experimental: (§4) To determine the effect of β3 -AR deficiency on β-adrenergicsignaling in vivo, various adrenergic agonists were administered to control and knockout mice, and the effects on serum levels of FFAs, glycerol, and thermogenesis were assessed.
(§5) Whole blood was collected and analyzed for blood glucose levels (One Touch Blood Glucose Meter, Lifescan, Inc., Milpitas, Calif.). Serum was then isolated and assayed for FFAs (NEFA C kit, Wako Pure Chemical Industries, Ltd.), glycerol (GPO-Trinder Kit, procedure 337, Sigma), and insulin (rat insulin kit, Linco Research Inc., St. Louis, Mo.) according to the manufacturers' protocols.

β3 -AR [5] = test: Acute effect on plasma insulin and blood glucose; assay type: in vivo, mouse; settings: β3 -AR-deficient mice; 1 mg/kg intraperitoneal
Source text: (§6) FIGS. 8A-B are graphs showing the acute effect of saline or CL 316,243 on plasma insulin and blood glucose concentrations. […] Blood was obtained from the tail fifteen minutes after […]. The results are expressed as the mean ±S.E. (+/+=seven mice, -/-=four mice).
as §5

β3 -AR [6] = test: Effect of a single dose on food intake; assay type: in vivo, mouse; settings: β3 -AR-deficient mice; 1 mg/kg intraperitoneal; twenty-four hours
Experimental: (§7) FIG. 9 is a graph showing the effect of a single dose of CL 316,243 on food intake. […] The mice were housed individually during the test period, and results for each group are the mean of five animals (±S.E.). Food intake was determined during the twenty-four hours following CL 316,243 or saline treatment.
(§8) To acclimate the mice to injections and handling, saline was injected daily for three days preceding day zero of the study. The mice were housed individually during the study. Food was weighed before injection and twenty-four hours after, and the differences were assumed to represent grams of food eaten per day. The cages were inspected for food spillage, and none was noted.

β3 -AR [7] = molecular target: T2, β3 -AR (Mus musculus, UniProt P25962); assay type: in vivo; set-up: endogenous in cells; host or cells: whole mice (control +/+ and beta-3-AR-deficient -/-, FVB background)
T2 sequence (P25962 whole entry): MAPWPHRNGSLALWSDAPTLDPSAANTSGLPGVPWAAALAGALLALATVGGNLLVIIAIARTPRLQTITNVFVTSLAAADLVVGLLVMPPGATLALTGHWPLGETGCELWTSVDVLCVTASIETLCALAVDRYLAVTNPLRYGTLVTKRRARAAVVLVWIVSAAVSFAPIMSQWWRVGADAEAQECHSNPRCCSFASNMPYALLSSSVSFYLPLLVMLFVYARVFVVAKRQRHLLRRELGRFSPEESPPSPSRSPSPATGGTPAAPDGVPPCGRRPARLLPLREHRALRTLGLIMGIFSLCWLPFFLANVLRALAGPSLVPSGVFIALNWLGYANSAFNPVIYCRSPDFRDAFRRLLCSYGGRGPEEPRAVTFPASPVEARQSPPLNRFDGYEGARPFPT
Experimental: as §4, §5

β3 -AR [8] = molecular target: T2, β3 -AR; test: Effect of a single dose on food intake; assay type: in vivo; set-up: endogenous in cells; host or cells: whole mice (control +/+ and beta-3-AR-deficient -/-, FVB background); settings: control mice; 1 mg/kg intraperitoneal; twenty-four hours
Experimental: as §7, §8

β3 -AR [9] = molecular target: T2, β3 -AR; assay type: biochemical; set-up: plasma membranes of isolated white adipocytes (epididymal) or interscapular brown adipose tissue; -/- mice are null control; settings: wild type mice; maximally effective / effective doses
Experimental: as §1

β3 -AR [10] = molecular target: T2, β3 -AR; assay type: in vivo; set-up: plasma membranes of isolated white adipocytes (epididymal) or interscapular brown adipose tissue; -/- mice are null control; settings: control mice; 1.0 mg/kg subcutaneously
Experimental: as §3, §2

β3 -AR [11] = molecular target: T2, β3 -AR; test: Acute effect on plasma insulin and blood glucose; assay type: in vivo; set-up: plasma membranes of isolated white adipocytes (epididymal) or interscapular brown adipose tissue; -/- mice are null control; settings: control mice; 1 mg/kg intraperitoneal, fifteen minutes
Source text: as §6, §5

Molecule: C[C@H](Cc1ccccc1)Nc1ncnc2c1ncn2[C@@H]1O[C@H](CO)[C@@H](O)[C@H]1O [PIA, N^6-[R-(-)-1-methyl-2-phenyl]adenosine]
inhibition of isoproterenol-stimulated lipolysis ([1]; control adipocytes, with vs without PIA (10 μM)): only minimally inhibited

Molecule: CC(C)(C)NCC(O)COc1cccc2[nH]c(=O)[nH]c12 (stereo not shown) [CGP-12177]
increase in oxygen consumption (human β3 -AR): twenty

Molecule: Adrenocorticotropic hormone (SYSMEHFRWGKPVGKKRRPVKVYPNGAEDESAEAFPLEF; Corticotropin; UniProt P01189 138-176, looked up) [ACTH, hormone that stimulates lipolysis via a seven-transmembrane receptor Gαs -adenylate cyclase-coupled mechanism]
lipolysis in adipocytes ([1]; wild type mice, +PIA): increase lipolysis
lipolysis in adipocytes ([1]; β3 -AR-deficient mice, +PIA): increase lipolysis

Molecule: NC[C@H](O)c1ccc(O)c(O)c1 [norepinephrine]
stimulated oxygen consumption (β3 -AR [2]; 0.6 mg/kg subcutaneously, anesthetized with pentobarbital): not significantly reduced

Molecule: C=C[C@@]1(C)CC(=O)[C@]2(O)[C@@]3(C)[C@@H](O)CCC(C)(C)[C@@H]3[C@H](O)[C@H](OC(C)=O)[C@@]2(C)O1 [forskolin]
lipolysis in adipocytes ([1]; wild type mice, +PIA): stimulate lipolysis
lipolysis in adipocytes ([1]; β3 -AR-deficient mice, +PIA): stimulate lipolysis

Molecule: C[C@H](Cc1ccc2c(c1)OC(C(=O)O)(C(=O)O)O2)NC[C@H](O)c1cccc(Cl)c1 [CL 316,243]
adenylate cyclase activity in membranes (β3 -AR [3]; β3 -AR-deficient mice, maximally effective doses): absent
lipolysis in adipocytes ([1]; wild type mice, +PIA): stimulated
lipolysis in adipocytes ([1]; β3 -AR-deficient mice, +PIA): absent
FFA (β3 -AR [4]; female -/-): 630 ± 140 µM
increase in serum FFA levels (β3 -AR [4]; β3 -AR-deficient mice): totally absent
increase in oxygen consumption (β3 -AR [2]; β3 -AR-deficient mice, 1.0 mg/kg subcutaneously): totally absent
effect on blood glucose (β3 -AR [5]): completely without effect
effect on plasma insulin levels (β3 -AR [5]): completely without effect
effect on food intake (β3 -AR [6]): completely ineffective
increase in serum FFA levels (β3 -AR [7]; control mice): 3.2 fold
FFA (β3 -AR [7]; serum, fifteen minutes after injection, female +/+): 2,260 ± 350 μM
reduction in food intake (β3 -AR [8]): forty-five
adenylate cyclase activity in membranes (β3 -AR [9]): stimulated
increase in oxygen consumption (β3 -AR [10]): 2 fold
increase in plasma insulin levels (β3 -AR [11]): 140 fold
reduction in blood glucose (β3 -AR [11]): fifty-six

reduction of stimulatory effect on adenylate cyclase activity (β3 -AR [3]; membranes derived from brown adipose tissue): seventy
reduction of stimulatory effect on adenylate cyclase activity (β3 -AR [3]; membranes derived from isolated white adipocytes): eighty
Molecule: CC(C)NCC(O)c1ccc(O)c(O)c1 (stereo not shown) [isoproterenol]
stimulation of lipolysis ([1]; wild type adipocytes, maximally effective concentration, +PIA): about five
reduction of stimulated lipolysis ([1]; β3 -AR-deficient adipocytes, -PIA): about thirty-three
lipolysis in adipocytes ([1]; β3 -AR-deficient mice, +PIA): absent
Glycerol (β3 -AR [4]; mouse, in vivo): 239 ± 15 µM
FFA (β3 -AR [4]; male -/-): 1.510 ± 20 µM
stimulated oxygen consumption (β3 -AR [2]; 0.3 mg/kg subcutaneously, awake): not significantly reduced
